Results as given in article PMC5460133 (Scientific Reports, 2017).

Tests used:
Sb-PDE [1] = system: T1, Sb-PDE; type: biochemical, Sphingobium sp. TCM1
T1 construct: native enzyme purified from Sphingobium sp; TCM1; signal peptide removed; mature 413 residues, N-terminus EFVTQSDQRPP (residues 29-39 of 441); homodimer, 116 kDa; zinc-containing; PHP superfamily

Sb-PDE [2] = system: T1, Sb-PDE; type: biochemical, Sphingobium sp. TCM1; remark: listed apart in the source

Molecule `O=[N+]([O-])c1ccc(OP(=O)(O)Oc2ccc([N+](=O)[O-])cc2)cc1` [BpNPP] has a K i (Sb-PDE [1]) of 12.5 ± 3.1 mM and a Km (Sb-PDE [2]) of 6.1 ± 1.2 mM.
For `O=[N+]([O-])c1ccc(OP(=O)(O)O)cc1` [pNPP], the Km (Sb-PDE [2]) was 1.5 ± 0.2 mM.
